Reference: PMC7673237 (ACS infectious diseases, 2020)
In brackets after ≈: the same amount, converted by molar mass. Where two headings read alike, the source gives them in different places.

Assays:
E. coli MG1655OXA-48 = test: Bacterial susceptibility; type: cell-based; conditions: for MIC: Escherichia coli
OXA-48 = OXA-48 (Klebsiella pneumoniae, UniProt Q6XEC0); test: Inhibition of OXA-48 mediated nitrocefin hydrolysis; type: biochemical; conditions: purified OXA-48, nitrocefin substrate, Morrison equation
OXA-24 = OXA-24 (Acinetobacter baumannii, UniProt Q8RLA6); test: Inhibition assay with nitrocefin as reporter, OXA-24; type: biochemical
OXA-58 = OXA-58 (Acinetobacter baumannii, UniProt Q2TR58); test: Inhibition assay with nitrocefin as reporter, OXA-58; type: biochemical
E. coli MG1655 = test: Accumulation assay in E. coli; type: cell-based; conditions: wild-type E. coli MG1655, 10 minutes at 37°C, LC-MS/MS
OXA-10 = OXA-10 (Pseudomonas aeruginosa, UniProt P14489); test: Inhibition assay with nitrocefin as reporter, OXA-10; type: biochemical
OXA-163 = OXA-163 (Klebsiella pneumoniae, UniProt Q6XEC0, DEL214-217/S212D); test: Inhibition assay with nitrocefin as reporter, OXA-163; type: biochemical; conditions: read-out: CDD-97 Ki; OXA-163, nitrocefin substrate

Structure (SMILES): NC(=O)[C@@H]1CC[C@@H]2CN1C(=O)N2OS(=O)(=O)O [Avibactam, avibactam]
- MIC (E. coli MG1655OXA-48; MG1655OXA48, read-out: AMP MIC, with avibactam 0.125 μg/mL): 256 µg/mL
- MIC (E. coli MG1655OXA-48; MG1655OXA48, read-out: AMP MIC, with avibactam 0.25 μg/mL): 128 µg/mL
- MIC (E. coli MG1655OXA-48; MG1655OXA48, read-out: AMP MIC, with avibactam 0.5 μg/mL): 64 µg/mL
- MIC (E. coli MG1655OXA-48; MG1655OXA48, read-out: AMP MIC, with avibactam 1 μg/mL): 32 µg/mL
- MIC (E. coli MG1655OXA-48; MG1655OXA48, read-out: AMP MIC, with avibactam 2 μg/mL): 16 µg/mL
- MIC (E. coli MG1655OXA-48; MG1655OXA48, read-out: AMP MIC, with avibactam 4 μg/mL): 4 µg/mL
- MIC (E. coli MG1655OXA-48; MG1655OXA48, read-out: IMP MIC, with avibactam 0.125 μg/mL): 0.312 µg/mL
- MIC (E. coli MG1655OXA-48; MG1655OXA48, read-out: IMP MIC, with avibactam 0.25 μg/mL): 0.312 µg/mL
- MIC (E. coli MG1655OXA-48; MG1655OXA48, read-out: IMP MIC, with avibactam 0.5 μg/mL): 0.156 µg/mL
- MIC (E. coli MG1655OXA-48; MG1655OXA48, read-out: IMP MIC, with avibactam 1 μg/mL): 0.156 µg/mL
- MIC (E. coli MG1655OXA-48; MG1655OXA48, read-out: IMP MIC, with avibactam 2 μg/mL): 0.156 µg/mL
- MIC (E. coli MG1655OXA-48; MG1655OXA48, read-out: IMP MIC, with avibactam 4 μg/mL): 0.0781 µg/mL
- change of both the AMP and IMP MICs with increasing inhibitor concentration (E. coli MG1655OXA-48; inhibitor up to 4 μg/ml): dose-dependent decrease

Structure (SMILES): CC1(C)S[C@@H]2[C@H](NC(=O)[C@H](N)c3ccccc3)C(=O)N2[C@H]1C(=O)O [AMP, ampicillin]
- MIC (E. coli MG1655OXA-48; MG1655OXA48, read-out: AMP MIC, no inhibitor (0 μg/mL)): 512 µg/mL (≈ 1470 µM)

Structure (SMILES): CCOc1ccccc1N1CCN(c2ncnc(N3CCC(C(=O)O)CC3)n2)CC1 [CDD-97]
- Ki (OXA-48): 0.53 ± 0.08 µM
- decrease in potency compared to OXA-48 (OXA-24; OXA-24 vs OXA-48): 26 fold
- Ki (OXA-24; read-out: CDD-97 Ki, OXA-24, nitrocefin substrate): 14 ± 1 µM
- AMP MIC (E. coli MG1655OXA-48; with CDD-97 4 μg/mL): 1024 µg/mL
- IMP MIC (E. coli MG1655OXA-48; with CDD-97 4 μg/mL): 0.625 µg/mL
- AMP MIC (E. coli MG1655OXA-48; with CDD-97 8 μg/mL): 512 µg/mL
- IMP MIC (E. coli MG1655OXA-48; with CDD-97 8 μg/mL): 0.3125 µg/mL
- AMP MIC (E. coli MG1655OXA-48; with CDD-97 16 μg/mL): 512 µg/mL
- IMP MIC (E. coli MG1655OXA-48; with CDD-97 16 μg/mL): 0.3125 µg/mL
- AMP MIC (E. coli MG1655OXA-48; with CDD-97 32 μg/mL): 512 µg/mL
- IMP MIC (E. coli MG1655OXA-48; with CDD-97 32 μg/mL): 0.3125 µg/mL
- AMP MIC (E. coli MG1655OXA-48; with CDD-97 64 μg/mL): 512 µg/mL
- IMP MIC (E. coli MG1655OXA-48; with CDD-97 64 μg/mL): 0.3125 µg/mL
- Ki less potent than observed for OXA-48 (OXA-58; OXA-58 vs OXA-48): about 100 fold
- Ki (OXA-58; read-out: CDD-97 Ki, OXA-58, nitrocefin substrate): 45 ± 0.8 µM
- level in cells lower than the positive control tetracycline (E. coli MG1655): 20 fold
- Ki less potent than observed for OXA-48 (OXA-10; OXA-10 vs OXA-48): about 100 fold
- Ki (OXA-10; read-out: CDD-97 Ki, OXA-10, nitrocefin substrate): 61 ± 27 µM
- Ki (OXA-163): 0.44 ± 0.02 µM

Structure (SMILES): C[C@@H](O)[C@H]1C(=O)N2C(C(=O)O)=C(SCCN=CN)C[C@H]12 [IMP, imipenem]
- MIC (E. coli MG1655OXA-48; MG1655OXA48, read-out: IMP MIC, no inhibitor (0 μg/mL)): 0.625 µg/mL (≈ 2.09 µM)
